Experimental findings from publication PMC7473772 (eLife, 2020) are described below.

Values joined by “and” are separate entries in the source; they are usually repeats but may differ in a detail not shown here. Identical values can stand only once. Counter-ions that a name gives are not always drawn. Like-named read-outs stand apart in the source and are kept apart here. Some results are limits rather than exact numbers.

In data set [1] the target is TbAQP2/HAPT1 (Trypanosoma brucei brucei, UniProt Q6ZXT3). Description: cell-based. The data set is classed as cell-based.
The subject of data set [2] is T. b. brucei 2T1. Description: Drug sensitivity assay (resazurin). The class given is cell-based. To be noted: Trypanosoma brucei, 48 h drug + 24 h resazurin, read-out: EC50 control 2T1 AVG. The procedure: The tbaqp2/tbaqp3 null cells ([Baker et al., 2012]) and tbaqp1-2-3 null cells ([Jeacock et al., 2017]) (both obtained from David Horn, University of Dundee, UK) are derived from the 2T1 strain of T. b. brucei ([Alsford and Horn, 2008]). The CRK12 RNAi cell line^28 was obtained from Dr Tansy Hammarton (University of Glasgow, UK) and is also based on the 2T1 cell line; RNAi expression was induced with 1 µg/ml tetracycline in the medium. All experiments were performed with bloodstream form trypanosomes grown in vitro in HMI-11 medium as described ([Wallace et al., 2002]) at 37°C in a 5% CO2 atmosphere. Cultures were routinely maintained in 10 ml of this medium, being seeded at 5 × 10^4 cells/ml and passed to fresh medium at reaching approximately 3 × 10^6 cells/ml after 48 hr. For transport experiments 150 or 200 ml of culture was seeded at the same density in large flasks and incubated until the culture reached late-log phase.
Drug sensitivity assays for T. b. brucei bloodstream forms used the cell viability dye resazurin (Sigma) and were performed exactly as described ([Wallace et al., 2002]; [Bridges et al., 2007]) in 96-well plates with doubling dilutions of test compound, starting at 100 µM, over 2 rows of the plate (23 dilutions plus no-drug control). Incubation time with test compound was 48 hr (37°C/5% CO2), followed by an additional 24 hr in the presence of the dye.

Data set [3] relates to tbaqp2 null (AQP2-KO). Description: Drug sensitivity assay (resazurin). The class given is cell-based. To be noted: Trypanosoma brucei, read-out: EC50 AQP2-KO AVG, AQP2-KO / tbaqp2 null; 48 h drug + 24 h resazurin.
Data set [4] concerns s427WT bloodstream forms. The class given is cell-based, Trypanosoma brucei brucei.
Data set [5] has as its system T. b. brucei s427 WT (bloodstream forms). The data set is classed as cell-based, Trypanosoma brucei brucei.
For data set [6], the system named is CRK12 RNAi cells. Description: [3H]-suramin uptake after CRK12 RNAi induction (endocytosis defect). The data set is classed as cell-based, Trypanosoma brucei.

Chain of TbAQP2/HAPT1 (Q6ZXT3 whole entry): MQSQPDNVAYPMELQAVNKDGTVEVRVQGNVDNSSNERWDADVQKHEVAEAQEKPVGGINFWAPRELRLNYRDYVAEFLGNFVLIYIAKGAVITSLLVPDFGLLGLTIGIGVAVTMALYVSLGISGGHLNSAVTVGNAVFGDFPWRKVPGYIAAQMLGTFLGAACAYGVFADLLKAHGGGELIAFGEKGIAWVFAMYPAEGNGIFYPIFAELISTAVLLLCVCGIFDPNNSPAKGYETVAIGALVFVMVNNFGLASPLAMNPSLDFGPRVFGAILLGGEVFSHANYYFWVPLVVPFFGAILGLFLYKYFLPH

As for `COc1ccc(-c2ccc(-c3ccc(C(=N)N)cc3)o2)cc1` (as salt: hydrochloride) [DB607, 4-(5-(4-methoxyphenyl)furan-2-yl) benzimidamide hydrochloride], the melting point is 250 to 252 °C (dec.).

For `Cn1c(-c2ccc(-c3ccc(C(=N)N)cc3)o2)nc2ccccc21` (as salt: hydrochloride) [DB960, 4-(5-(1-methyl-1H-benzo[d]imidazol-2-yl)furan-2-yl) benzimidamide dihydrochloride], the melting point was > 290 °C (dec.).

The compound `Cl.N=C(N)c1ccc(OCCCCOc2ccccc2)cc1.O` (hydrate or solvate) [CHI/1/69/1, 4-(4-Phenoxybutoxy)benzimidamide hydrochloride hydrate] returned a melting point of 134 to 135 °C.

Consider `Cl.Cl.N=C(N)c1ccc(OCCOc2ccc(C(=N)N)cc2)cc1.O.O` (hydrate or solvate) [Ethamidine, 4,4'-(ethane-1,2-diylbis(oxy))dibenzimidamide dihydrochloride dihydrate], for which the melting point amounted to 333 °C.

With `Cc1ccc(OCCCCCOc2ccc(C(=N)N)cc2)cc1` [CHI/1/72/1, 4-(5-(p-tolyloxy)pentyyloxy)benzimidamide hydrochloride hydrate], the ΔG0 in data set [1] is -7.62 kcal/mol. In addition, in data set [1], the “δ(ΔG^0) PMD” value was 2.56 kcal/mol. The Ki in data set [1] (HAPT Ki AVG) worked out at 2600 nM; in data set [1] (HAPT Ki, AVG), 2620 nM. Besides, the figures for the EC50 in data set [2] and in data set [3] were 3230 nM and 2640 nM, respectively.

For the compound `N=C(N)c1ccc(-c2ccc(-c3ccc(C(=N)N)cc3)o2)cc1` [DB75], the ΔG0 in data set [1] was -6.02 kcal/mol. Further, the “δ(ΔG^0) PMD” value in data set [1] amounted to 4.13 kcal/mol. Moreover, the figures for the Ki in data set [1] (HAPT Ki AVG) and in data set [1] (Ki) were 38300 nM and 38200 ± 10200 nM, respectively. The EC50 in data set [2] was determined as 50 nM; in data set [3] it was 20 nM.

As for `Cl.Cl.c1cc(-c2ccc(-c3ccc(CCC4=NCCN4)cc3)s2)ccc1CCC1=NCCN1` [DB1064, 2,5-bis(4-(2-(4,5-dihydro-1H-imidazol-2-yl)ethyl)phenyl) thiophene dihydrochloride], the melting point is > 225 °C (dec.). In data set [1], the ΔG0 is -7.53 kcal/mol and the “δ(ΔG^0) PMD” value came to 2.63 kcal/mol. This compound also returned a Ki in data set [1] (Ki) of 3000 ± 820 nM.

For the compound `N=C(N)c1ccc(-c2ccc(-c3ccc(C(=N)N)cc3)[se]2)cc1` [DB1213], the ΔG0 in data set [1] was -8.39 kcal/mol. Moreover, the “δ(ΔG^0) PMD” value in data set [1] came to 1.79 kcal/mol. The compound further registered a Ki in data set [1] (Ki) of 720 ± 170 nM. Moreover, the figures for the EC50 in data set [2] and in data set [3] were 142 nM and 78 nM, respectively.

On to `CCN1C(=O)C=CC1=O` [NEM, N-ethylmaleimide], for which the pentamidine uptake was 60.1 percentage of the uninhibited control in data set [4] (NEM 1000, AVG); 56.77 percentage of the uninhibited control and 56.26 percentage of the uninhibited control and 67.13 percentage of the uninhibited control in data set [4] (NEM 1000, single repeats). Further, the PMF in data set [5] is recorded as -39.3.

With `CNC(=N)c1ccc(OCCCCCOc2ccc(C(=N)NC)cc2)cc1` [RT-30], the ΔG0 in data set [1] was -8.89 kcal/mol. For the same compound, the “δ(ΔG^0) PMD” value in data set [1] came out at 1.27 kcal/mol. In data set [1] (Ki), the Ki stood at 300 ± 70 nM. The values for the EC50 in data set [2] and in data set [3] were 590 nM and 800 nM, respectively.

With `c1cc(C2=NCCN2)ccc1OCCCCCOc1ccc(C2=NCCN2)cc1` [RT-32], in data set [1], the ΔG0 was -8.72 kcal/mol and the “δ(ΔG^0) PMD” value stood at 1.43 kcal/mol. The Ki in data set [1] (Ki) worked out at 400 ± 80 nM. In addition, in data set [2], the EC50 turned out to be 400 nM. For the same compound, the EC50 in data set [3] was determined as 500 nM.

Take `N=C(N)c1ccc(OCCCCCOc2ccc(N)cc2)cc1` [RT-36]: in data set [1], the ΔG0 was -8.68 kcal/mol and the “δ(ΔG^0) PMD” value was found to be 1.48 kcal/mol. The Ki in data set [1] (Ki) stood at 430 ± 70 nM. Further, the EC50 in data set [2] came out at 25700 nM. Besides, the EC50 in data set [3] amounted to 23000 nM.

Take `N=C(N)c1ccc(OCCCCCOc2ccc(C(=N)N)cc2Cl)c(Cl)c1` [RT-43]: in data set [1], the ΔG0 was -8.58 kcal/mol, the “δ(ΔG0)” value was 1.59 kcal/mol and the “δ(ΔG^0) PMD” value is 1.58 kcal/mol. In data set [1] (Ki), this compound gave a Ki of 510 ± 150 nM. Also, in data set [2], the EC50 is 180 nM. Besides, the EC50 in data set [3] stood at 235 nM.

Regarding `N=C(N)c1ccc(SCCCCCSc2ccc(C(=N)N)cc2)cc1` [RT-48], in data set [1], the ΔG0 is -7.77 kcal/mol and the “δ(ΔG^0) PMD” value turned out to be 2.39 kcal/mol. In addition, the Ki in data set [1] (Ki) was 2010 ± 860 nM. For the same compound, the EC50 in data set [2] was 24 nM. For the same compound, in data set [3], the EC50 was 165 nM.

In data set [1], `N=C(N)c1ccc(NCCCCCNc2ccc(C(=N)N)cc2)cc1` [RT-50] came in with a ΔG0 of -7.1 kcal/mol. Also, in data set [1], the “δ(ΔG^0) PMD” value was determined as 3.08 kcal/mol. This compound also gave an inhibitory constant (Ki) in data set [1] (Ki) of 6270 ± 1300 nM. The results for the EC50 in data set [2] and in data set [3] were 4.1 nM and 72 nM, respectively.

Consider `N=C(N)c1ccc(OCCCCCOc2ccc(C(=N)N)cn2)nc1` [RT-52], for which, in data set [1], the ΔG0 is -6.88 kcal/mol and the “δ(ΔG^0) PMD” value amounted to 3.27 kcal/mol. In data set [1] (Ki), this compound displayed an inhibition constant Ki of 8840 ± 880 nM. In addition, the EC50 in data set [2] is 8.8 nM. Moreover, in data set [3], the EC50 was determined as 51 nM.

As to `Cc1ccc(C(=O)Nc2ccc(S(=O)(=O)O)c3cc(S(=O)(=O)O)cc(S(=O)(=O)O)c23)cc1NC(=O)c1cccc(NC(=O)Nc2cccc(C(=O)Nc3cc(C(=O)Nc4ccc(S(=O)(=O)O)c5cc(S(=O)(=O)O)cc(S(=O)(=O)O)c45)ccc3C)c2)c1` [Suramin], in data set [6] (AVERAGE of the experiments), the “suramin uptake rate, CRK+tet” value stood at 0.000346 pmol/1E7 cells/s-1 and the “suramin uptake rate, CRK-tet” value was determined as 0.000523 pmol/1E7 cells/s-1. In data set [6] (single experiments), the “suramin uptake rate, CRK+tet” value was 0.0003125 pmol/1E7 cells/s-1 and 0.0002775 pmol/1E7 cells/s-1 and 0.0003952 pmol/1E7 cells/s-1 and 0.0004343 pmol/1E7 cells/s-1; the “suramin uptake rate, CRK-tet” value is 0.0004923 pmol/1E7 cells/s-1 and 0.0003572 pmol/1E7 cells/s-1 and 0.000635 pmol/1E7 cells/s-1 and 0.0006387 pmol/1E7 cells/s-1. For the same compound, the “Reduction of [3H]-suramin uptake” value in data set [6] (twelve hours after CRK12 RNAi induction) is reported as 33%.

For the compound `CO[C@@H]1C[C@@H](C[C@H]2CC[C@H](C)[C@H]([C@@H](C)C(=O)O)O2)O[C@]2(O[C@](C)([C@H]3CC[C@@](C)([C@@H]4O[C@@H]([C@H]5O[C@@](O)(CO)[C@H](C)C[C@@H]5C)C[C@@H]4C)O3)C[C@H]2C)[C@@H]1C` [nigericin], in data set [4], the “Effect of ionophore on pentamidine uptake” value is on record as “strongly inhibited”. For the same compound, the 3H-penta in data set [4] (CCCP 20, gramicidin 10, Nigericin 20, NEM 1000, Control = 100) was 44.45. The pentamidine uptake was 109.4 percentage of the uninhibited control in data set [4] (Nigericin 1, AVG); 108 percentage of the uninhibited control and 110.7 percentage of the uninhibited control in data set [4] (Nigericin 1, single repeats); 76.8 percentage of the uninhibited control in data set [4] (Nigericin 5, AVG); 61.2 percentage of the uninhibited control in data set [4] (Nigericin 10, AVG); 63.9 percentage of the uninhibited control and 61 percentage of the uninhibited control and 53.2 percentage of the uninhibited control and 66.7 percentage of the uninhibited control in data set [4] (Nigericin 10, single repeats); 44.5 percentage of the uninhibited control in data set [4] (Nigericin 20, AVG). In data set [4] (Nigericin 20, single repeats), the pentamidine uptake was 41.7 percentage of the uninhibited control and 44.5 percentage of the uninhibited control and 42.9 percentage of the uninhibited control and 48.7 percentage of the uninhibited control. In data set [5], the PMF was -46.9.

Consider `CC(C)[C@@H]1NC(=O)[C@H](C)OC(=O)[C@@H](C(C)C)NC(=O)[C@@H](C(C)C)OC(=O)[C@H](C(C)C)NC(=O)[C@H](C)OC(=O)[C@@H](C(C)C)NC(=O)[C@@H](C(C)C)OC(=O)[C@H](C(C)C)NC(=O)[C@H](C)OC(=O)[C@@H](C(C)C)NC(=O)[C@@H](C(C)C)OC1=O` [valinomycin], for which the pentamidine uptake in data set [4] (valinomycin 0.3, AVG) is 106.4 percentage of the uninhibited control; in data set [4] (valinomycin 0.3, single repeats) it was 108.9 percentage of the uninhibited control and 103.8 percentage of the uninhibited control; in data set [4] (valinomycin 1, AVG), 91.0 percentage of the uninhibited control; in data set [4] (valinomycin 1, single repeats), 97.7 percentage of the uninhibited control and 84.2 percentage of the uninhibited control; in data set [4] (valinomycin 10, AVG) it was 80.1 percentage of the uninhibited control; in data set [4] (valinomycin 10, single repeats) it was 86.7 percentage of the uninhibited control and 73.5 percentage of the uninhibited control.
